Source: ChEMBL document CHEMBL5257035, “Nucleoside Derived Antibiotics to Fight Microbial Drug Resistance: New Utilities for an Established Class of Drugs?” (J Med Chem, 2016)
In brackets after ≈: the same amount, converted by molar mass.

Experiments:
Staphylococcus aureus = test: Antimicrobial activity against methicillin-resistant Staphylococcus aureus 10925 assessed as reduction in microbial growth by broth microdilution method; format: functional
Streptococcus pyogenes = test: Antimicrobial activity against Streptococcus pyogenes ATCC 12344 assessed as reduction in microbial growth by broth microdilution method; format: functional
Enterococcus faecium = test: Antimicrobial activity against Enterococcus faecium ATCC 19434 assessed as reduction in microbial growth by broth microdilution method; format: functional
[1] = target: Phospho-N-acetylmuramoyl-pentapeptide-transferase (Staphylococcus aureus, UniProt P0C1R8); test: Inhibition of Staphylococcus aureus MraY
Phospho-N-acetylmuramoyl-pentapeptide-transferase (Staphylococcus aureus, UniProt P0C1R8), sequence (P0C1R8 whole entry): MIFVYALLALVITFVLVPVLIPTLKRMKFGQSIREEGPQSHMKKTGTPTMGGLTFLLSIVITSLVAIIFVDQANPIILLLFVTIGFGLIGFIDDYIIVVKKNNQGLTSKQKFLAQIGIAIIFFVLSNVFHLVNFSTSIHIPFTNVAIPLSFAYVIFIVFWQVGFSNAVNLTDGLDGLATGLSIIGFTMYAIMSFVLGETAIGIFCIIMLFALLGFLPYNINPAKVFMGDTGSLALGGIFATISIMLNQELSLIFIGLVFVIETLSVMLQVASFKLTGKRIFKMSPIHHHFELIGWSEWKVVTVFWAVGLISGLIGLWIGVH

[2] = test system: Mycolicibacterium smegmatis; test: Antibacterial activity against Mycobacterium smegmatis ATCC 607 assessed as bacterial growth inhibition; format: functional
Enterococcus faecalis = test: Antimicrobial activity against Enterococcus faecalis ATCC 29212 assessed as microbial growth inhibition; format: functional, organism-based
Pseudomonas aeruginosa [3] = test: Antimicrobial activity against Pseudomonas aeruginosa ATCC 15692 assessed as microbial inhibition; format: functional, organism-based
Pseudomonas aeruginosa [4] = test: Antibacterial activity against Pseudomonas aeruginosa ATCC 27853 assessed as bacterial growth inhibition at 32 ug/ml measured after 16 hrs by broth microdilution method; format: functional; conditions: dose 32 µg/ml
[5] = test system: Mycobacterium tuberculosis; test: Antimycobacterial activity against Mycobacterium tuberculosis K4 assessed as reduction in bacterial activity; format: functional
Pseudomonas aeruginosa [6] = test: Antibacterial activity against Pseudomonas aeruginosa assessed as reduction in bacterial growth; format: functional
Candida albicans [7] = test: Antifungal activity against Candida albicans SC5314 assessed as reduction in microbial growth inhibition incubated for 48 hrs by broth microdilution assay; format: functional
[8] = test system: Staphylococcus chromogenes; test: Antibacterial activity against wild type Staphylococcus chromogenes 7100 assessed as bacterial growth inhibition; format: functional
[9] = Inhibition of Candida albicans SC5314 chitin synthase using UDP-GlcNAc as substrate incubated for 1 hr
Candida albicans [10] = test: Antifungal activity against Candida albicans B-311 assessed as reduction fungal growth incubated for 16 hrs by microbroth dilution method; format: functional
Candida albicans [11] = test: […] activity against Candida albicans assessed as […] measured after 24 hrs by microtitre dilution method; format: functional
Candida albicans [12] = test: Antifungal activity against Candida albicans assessed as inhibition of fungal growth; format: functional
[13] = test system: Cutaneotrichosporon cutaneum; test: Antifungal activity against Trichosporon cutaneum 3071 assessed as reduction in microbial growth inhibition for 48 hrs by broth microdilution assay; format: functional
[14] = test system: Mycobacterium intracellulare; test: Antimycobacterial activity against Mycobacterium intracellulare ATCC1954 E-3 assessed as microbial growth reduction; format: functional
Mycobacterium kansasii = test: Antimycobacterial activity against Mycobacterium kansasii ATCC12478 assessed as microbial growth reduction; format: functional
[15] = Inhibition of Bacillus stearothermophilus tyrosyl tRNA synthetase; parameters: species or system Geobacillus stearothermophilus
Escherichia coli = test: Antibacterial activity against Escherichia coli K12 assessed as bacterial growth inhibition by broth microdilution method; format: functional
Candida albicans [16] = test: Antifungal activity against Candida albicans ATCC 10231 assessed as reduction in fungal growth incubated for 12 hrs by broth microdilution method; format: functional
Aspergillus niger = test: Antifungal activity against Aspergillus niger MTCC 282 assessed as reduction in microbial growth measured after 48 hrs by broth dilution method; format: functional
Cryptococcus neoformans = test: Antifungal activity against Cryptococcus neoformans assessed as reduction in fungal growth; format: functional
Coccidioides immitis = test: Antifungal activity against Coccidioides immitis assessed as reduction in fungal growth; format: functional
Pseudomonas aeruginosa [17] = test: Antimicrobial activity against Pseudomonas aeruginosa ATCC 27853 assessed as inhibition of microbial growth
Pseudomonas aeruginosa [18] = test: Antibacterial activity against Pseudomonas aeruginosa assessed as bacterial growth reduction; format: functional
[19] = target: Phospho-N-acetylmuramoyl-pentapeptide-transferase (Bacillus subtilis (strain 168), UniProt Q03521); test: Inhibition of Bacillus subtilis MraY
Phospho-N-acetylmuramoyl-pentapeptide-transferase (Bacillus subtilis (strain 168), UniProt Q03521), sequence (Q03521 whole entry): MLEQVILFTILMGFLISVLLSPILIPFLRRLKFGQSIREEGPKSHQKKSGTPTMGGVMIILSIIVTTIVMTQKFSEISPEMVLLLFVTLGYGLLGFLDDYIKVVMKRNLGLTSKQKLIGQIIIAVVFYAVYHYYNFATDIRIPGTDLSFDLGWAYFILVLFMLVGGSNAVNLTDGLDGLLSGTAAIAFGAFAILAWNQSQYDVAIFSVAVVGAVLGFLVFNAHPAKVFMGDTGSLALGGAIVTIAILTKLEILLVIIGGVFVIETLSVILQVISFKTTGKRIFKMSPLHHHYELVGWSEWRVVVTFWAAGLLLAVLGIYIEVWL

Proline--tRNA ligase = Proline--tRNA ligase (Escherichia coli, UniProt P16659); test: Binding affinity to Escherichia coli K12 Prolyl-tRNA synthetase
Proline--tRNA ligase, sequence (P16659 whole entry): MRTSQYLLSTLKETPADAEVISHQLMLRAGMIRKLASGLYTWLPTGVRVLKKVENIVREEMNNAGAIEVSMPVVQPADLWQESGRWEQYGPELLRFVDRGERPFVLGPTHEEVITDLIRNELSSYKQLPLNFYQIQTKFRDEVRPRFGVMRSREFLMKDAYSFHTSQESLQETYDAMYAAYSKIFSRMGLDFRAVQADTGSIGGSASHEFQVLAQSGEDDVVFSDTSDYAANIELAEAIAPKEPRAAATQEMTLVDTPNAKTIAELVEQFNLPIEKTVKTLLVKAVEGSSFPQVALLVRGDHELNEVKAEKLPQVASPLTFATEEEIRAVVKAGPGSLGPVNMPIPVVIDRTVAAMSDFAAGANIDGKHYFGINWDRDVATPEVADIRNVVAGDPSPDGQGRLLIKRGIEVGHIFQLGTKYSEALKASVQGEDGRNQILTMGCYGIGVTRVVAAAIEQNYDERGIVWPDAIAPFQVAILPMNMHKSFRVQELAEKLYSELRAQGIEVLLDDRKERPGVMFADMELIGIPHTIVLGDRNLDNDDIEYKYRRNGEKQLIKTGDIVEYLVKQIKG

Mycobacterium avium = test: Antimycobacterial activity against Mycobacterium avium ATCC 25291 assessed as bacterial growth inhibition; format: functional

With `CCCCCCCCCCCCC[C@@H](CC(=O)O[C@H]1CN(C)[C@@H]([C@H](O[C@H]2O[C@@H](CN)[C@H](O)[C@@H]2O)[C@H]2O[C@@H](n3ccc(=O)[nH]c3=O)[C@H](OS(=O)(=O)O)[C@@H]2O)C(=O)N(C)[C@@H]1C(=O)O)OC(=O)C[C@H](C)CC(=O)O[C@@H]1O[C@@H](C)[C@H](OC)[C@@H](OC)[C@H]1OC` the MIC (Staphylococcus aureus) was 4 µg/mL, the MIC (Streptococcus pyogenes) was 4 µg/mL and the MIC (Enterococcus faecium) was 4 µg/mL.
Compound `CO[C@H]1[C@@H](O)[C@H](n2ccc(=O)[nH]c2=O)O[C@@H]1[C@@H](O[C@@H]1OC(C(=O)N[C@H]2CCC[C@@H](C)NC2=O)=C[C@@H](O)[C@H]1O)C(N)=O` has an IC50 [1] of 17 nM and an MIC [2] of 6.25 µg/mL (≈ 10.7 µM).
Compound `CCCC(C)CC(C)CC(C)/C=C(C)/C=C/C(O)C(C)C(=O)OC1C(O)CN2CC1NC[C@H]1O[C@@H](OC([C@H]3O[C@@H](n4ccc(=O)[nH]c4=O)[C@H](O)[C@@H]3OS(=O)(=O)O)C2C(=O)O)[C@H](O)[C@@H]1O` (stereo partly drawn) has an IC50 (Enterococcus faecalis) of 0.012 µg/mL (≈ 0.0129 µM) and an IC50 (Pseudomonas aeruginosa [3]) of 0.065 µg/mL (≈ 0.0697 µM).
Work on `CCCCCCCCCCCCCCCCC(=O)[C@H](NCCCC(=O)NCCCCNC(=N)N)[C@H](O[C@@H]1O[C@H](CN)[C@@H](O)[C@H]1O)[C@H]1O[C@@H](n2ccc(=O)[nH]c2=O)[C@H](O)[C@@H]1O` yielded an MIC (Pseudomonas aeruginosa [4]) of 4 µg/mL (≈ 4.68 µM).
For `CN1C[C@H](O)[C@@H](C(=O)O)N(C)C(=O)[C@@H]1[C@H](O[C@@H]1O[C@H](CN)[C@@H](O)[C@H]1O)[C@H]1O[C@@H](n2ccc(=O)[nH]c2=O)[C@H](O)[C@@H]1O` [CAPRAZOL], the MIC [5] was 3.13 µg/mL (≈ 5.44 µM).
`C[C@H](N)C(=O)N(C)[C@@H](C)[C@H](NC(=O)[C@H](C)NC(=O)N[C@@H](Cc1c[nH]c2ccccc12)C(=O)O)C(=O)N/C=C1/C[C@@H](O)[C@H](n2ccc(=O)[nH]c2=O)O1` [PACIDAMYCIN D] gave an MIC (Pseudomonas aeruginosa [6]) of 32 µg/mL (≈ 45 µM).
`C[C@@H]([C@H](N)C(=O)N[C@H](C(=O)O)[C@H]1OC(n2cc(C=O)nc2O)[C@H](O)[C@@H]1O)[C@H](O)c1ccc(O)cn1` (stereo partly drawn) [NIKKOMYCIN X] gave an MIC (Candida albicans [7]) of 16 µg/mL, an MIC [8] of 2 µg/mL (≈ 4.04 µM) and an IC50 [9] of 0.1 µg/mL (≈ 0.202 µM). The MIC (Candida albicans [10]) was 2.5 µg/mL (≈ 5.05 µM), the MIC (Candida albicans [11]) was 0.5 µg/mL (≈ 1.01 µM) and the MIC (Candida albicans [12]) was 2 µg/mL (≈ 4.04 µM). The MIC [13] was 64 µg/mL.
With `CO[C@H]1[C@@H](O)[C@H](n2ccc(=O)[nH]c2=O)O[C@@H]1[C@@H](O[C@@H]1OC(C(=O)Nc2ccc(F)c(F)c2)=C[C@@H](O)[C@H]1O)C(N)=O` the MIC [14] was 0.5 µg/mL (≈ 0.876 µM) and the MIC (Mycobacterium kansasii) was 0.5 µg/mL (≈ 0.876 µM).
With `Nc1ncnc2c1ncn2[C@@H]1O[C@H](COS(=O)(=O)NC(=O)[C@@H](N)Cc2ccc(O)cc2)[C@@H](O)[C@H]1O` the Ki [15] was 26 nM.
For `Nc1nc2c(ncn2[C@@H]2O[C@H](CO)[C@@H](O)[C@H]2O)c(=O)o1`, the MIC (Escherichia coli) was 12.5 µg/mL (≈ 44 µM).
`CC1(C)O[C@@H]2[C@H](O1)[C@@H](Cn1cc(COc3ccccc3)nn1)O[C@H]2n1ccc(=O)[nH]c1=O` showed an MIC (Candida albicans [16]) of 8 µg/mL (≈ 18.1 µM).
With `C[C@@H]([C@H](N)C(=O)N[C@H](C(=O)O)[C@@H]1C[C@@H](O)[C@@H](O)[C@H](n2ccc(=O)[nH]c2=O)O1)[C@H](O)c1ccc(O)cc1` the MIC (Aspergillus niger) was 0.03 µg/mL, the MIC (Cryptococcus neoformans) was 0.25 µg/mL (≈ 0.492 µM) and the MIC (Candida albicans [12]) was 0.03 µg/mL (≈ 0.059 µM). The MIC (Coccidioides immitis) was 0.03 µg/mL (≈ 0.059 µM).
With `COC(=O)C1=C[C@@H](O)[C@@H](O)[C@H](O[C@@H](C(N)=O)[C@H]2O[C@@H](n3ccc(=O)[nH]c3=O)[C@H](O)[C@@H]2OC)O1` the IC50 [1] was 27 nM.
With `C[C@@H](NC(=O)N[C@@H](Cc1c[nH]c2ccccc12)C(=O)O)C(=O)N[C@H](C(=O)N/C=C1/C[C@@H](O)[C@H](n2ccc(=O)[nH]c2=O)O1)[C@H](C)N(C)C(=O)[C@@H](N)CN` the MIC (Pseudomonas aeruginosa [17]) was 4 µg/mL, the MIC (Pseudomonas aeruginosa [18]) was 16 µg/mL (≈ 22 µM) and the MIC (Pseudomonas aeruginosa [6]) was 32 µg/mL (≈ 44 µM). The IC50 [19] was 22 nM.
In the case of `Nc1ncnc2c1ncn2[C@@H]1O[C@H](COS(=O)(=O)NC(=O)[C@H]2CCCN2)[C@@H](O)[C@H]1O`, the Ki (Proline--tRNA ligase) is reported as 490 nM.
`CN1C(=O)[C@H]([C@H](O[C@H]2O[C@@H](CN)[C@H](O)[C@@H]2O)[C@H]2O[C@@H](n3ccc(=O)[nH]c3=O)[C@H](O)[C@@H]2O)N(C)CC=C1C(=O)O` showed an MIC (Mycobacterium avium) of 0.05 µg/mL (≈ 0.0897 µM).
